# “Also recorded” adds a separate entry of the source.
# How the values were obtained:
# UT189 = assay: Copper mediated cytotoxicity assay, wild type strain; assay type: cell-based, E. coli; details: for effect on viability: 20 μM alone, no copper; for effect on copper (II) sulfate toxicity: exogenous addition of 20 μM
# Method: (§1) Following overnight growth in 50 mL M63 minimal media, bacterial cultures were washed twice in phosphate buffered saline (PBS, Sigma) and centrifuged at 6,500 rpm. Washed cultures were resuspended in fresh M63 minimal media, and normalized to 10^8 CFU/mL for subsequent treatment. Normalized cultures were treated with varying concentrations of copper (II) sulfate and test agent in 2 mL reaction volumes in 6-well tissue culture plates. Samples were incubated for 20 hours at 37° C. with shaking. Bacterial viability was reported as the number of colony forming units per milliliter of the reaction volume post-treatment (CFU/mL).
# [1] = Free copper (I) determination with bathocuproine; details: for reduction of copper (II) to copper (I): 20 μM reductant, 17.5 μM copper (II) sulfate
# Method: Free copper (I) was determined spectrophotometrically using the copper (I) indicator bathocuproine. Briefly, 25 μM bathocuproine, 25 μM apo-yersiniabactin, and 17.5 μM copper (II) sulfate, were used in combination in order-of-addition experiments, as well as alone as controls in PBS. Either 20 μM enterobactin (Sigma) or its catecholate moiety, 2,3-dihydroxybenzoic acid (DHB) were added as bioreductants. Following a 30 minute room temperature incubation, 25 μM bathocuproine was added and copper (I) levels were determined by measuring the visible absorbance at 480 nm of the cuprous-bathocuproine complex. Final concentrations of copper (I) were determined by comparison to a standard curve.
# RAW264.7 macrophages = details: 25 mM DPI, data not shown
# [2] = system: yersiniabactin biosynthesis; assay: Inhibition of yersiniabactin biosynthesis in a urinary pathogenic E. coli strain; assay type: cell-based
# Description: (§2) The ability of PAS to inhibit yersiniabactin biosynthesis in a urinary pathogenic E. coli strain was examined.
# [3] = system: urinary pathogenic E. coli strain; assay: In vitro growth of urinary pathogenic E. coli strain; assay type: cell-based; details: at levels that inhibit yersiniabactin biosynthesis
# Description: as §2
# [4] = Superoxide dismutase (SOD) activity, xanthine/xanthine oxidase WST-1 formazan assay; assay type: biochemical; details: for superoxide dismutase activity (in words) / SOD activity, percentage inhibition rate: WST-formazan assay, no added protein; for superoxide dismutase activity in the presence of protein: 1.0 mg/mL bovine serum albumin
# Method: Reduction of WST-1 was monitored at 440 nm in a final volume of 100 μL. One unit of activity was defined as the amount of compound which blocked 50% WST-1 reduction under these conditions. […] To determine whether SOD activity is retained in the presence of protein, these experiments were repeated in the presence of 1.0 mg/mL bovine serum albumin (Sigma).
# UTI89ΔybtS = assay: Copper mediated cytotoxicity assay, yersiniabactin-deficient strain; assay type: cell-based, E. coli
# Method: as §1
# [5] = UV-Vis spectroscopy of metal interaction; assay type: physicochemical; details: purified HPTT with Fe (III) and Cu (II)
# Description: At this point, it had been confirmed that HPTT is detectable in vivo in a model UPEC strain that makes yersiniabactin. FIG. 24 confirms that HPTT is detected in wildtype UT189 but not UT189 strains comprising deletions in the yersiniabactin synthesis pathway (ybtS and ybtE). Given that HPTT is being secreted outside the cell and that it is made in relatively high abundance, we wanted to see if HPTT could be performing a specific function for the bacteria, and not simply a transient intermediate along the way to Ybt (FIG. 24). Given that its structure is similar to yersiniabactin, a siderophore, we hypothesized that it could interact with metals. Using solid phase extraction and HPLC, HPTT was purified to homogeneity with no contaminants, as detectable by HPLC. The purified compound was used to look for interactions with iron and copper by UV-Vis spectroscopy.
# [6] = system: E. coli clinical isolates; assay: Antimicrobial susceptibility of clinical isolates by disk diffusion; assay type: cell-based; details: for resistant clinical isolates: 337 bacteriuric inpatient clinical isolates
# Description: The samples were collected as part of a Washington University Institutional Review Board-approved prospective study of patients with E. coli bacteriuria (>5×10^4 colony forming units per milliliter) described by Marschall et al.^11 Strains without associated blood culture data were not excluded from this study. Briefly, clinical isolates were collected from male and female patients with significant bacteriuria. Bacterial DNA was extracted using a QIAamp DNA mini kit (Qiagen, Valencia, Calif.). DNA probes for virulence genes were conducted as previously described^11, and the presence of these genes was determined by dot-blot hybridization using a microarray system as described elsewhere (Table 1). E. coli phylogenetic group was determined from hybridization results using the triple genotyping method of Clermont et al.^25 Antimicrobial susceptibility was determined using disk diffusion tests. Bacteriuria was defined as? 5×10^4 colony forming units (CFU)/mL in non-catheterized patients and ≧5×10^3 CFU/mL in catheterized patients, as well as by using the patients' documented urinary symptoms. Pyelonephritis was defined as the presence of flank pain and tenderness and/or fever; sepsis and sepsis-induced hypotension were defined using established clinical criteria. The Microbiology Laboratory at Barnes Jewish Hospital provided clinical antibiogram data.
molecule,measurement,setting,value
"O=C(O)c1cccc(O)c1O [DHB, 2,3-dihydroxybenzoic acid]",effect on viability,UT189,minimal effect
same,effect on copper (II) sulfate toxicity,UT189,enhances copper (II) sulfate toxicity
same,reduction of copper (II) to copper (I),[1],93.1%
"c1ccc2c(c1)[I+]c1ccccc1-2 [DPI, Diphenyleneiodonium]",oxidative-burst activity,RAW264.7 macrophages,decreased oxidative-burst activity to background levels
same,phagocytosis,RAW264.7 macrophages,without any gross defect in phagocytosis
"Nc1ccc(C(=O)O)c(O)c1 [PAS, Para-aminosalicylic acid]",inhibition of yersiniabactin biosynthesis,[2],selectively inhibits yersiniabactin biosynthesis
same,inhibition of in vitro growth,[3],did not inhibit in vitro growth; also recorded: without inhibiting growth
CC(C)(C1=N[C@@](C)(C(=O)O)CS1)[C@H](O)[C@@H]1CSC([C@H]2CSC(c3ccccc3O)=N2)N1 (stereo partly drawn) [apo-yersiniabactin],superoxide dismutase activity (in words),[4],did not demonstrate superoxide dismutase activity and not
same,cytoprotection from copper toxicity,UTI89ΔybtS; added in 1.5-fold molar excess over copper (II) sulfate,restores growth to untreated wild type levels
same,effect on bacterial viability,UTI89ΔybtS; in the absence of copper,negligible effect
same,decrease in viable cells compared to wild type,UTI89ΔybtS; purified apo-Ybt added with 10 μM copper sulfate,0.024 log
same,copper (I) bathocuproine signal,"[1]; apo-Ybt added before enterobactin or DHB, listed as Apo-yersiniabactin",prevents catechol-dependent reduction
same,copper (I) bathocuproine signal,"[1]; apo-Ybt added before enterobactin or DHB, listed as apo-Ybt",almost completely blocked
same,copper (I) bathocuproine signal,[1]; enterobactin or DHB added before apo-Ybt,restored the copper (I) signal
"O=S(=O)([O-])[O-].[Cu+2] [copper sulfate, copper (II) sulfate]",superoxide dismutase activity in the presence of protein,[4],suppressed
same,"SOD activity, percentage inhibition rate",[4],33.8%
same,superoxide dismutase activity (in words),[4],did not demonstrate any superoxide dismutase like activity
same,decrease in bacterial viability,UTI89ΔybtS; 10 μM copper sulfate alone,> 3 log CFU/mL
same,reduction of viable colonies,UT189; 10 μM copper (II) sulfate alone,2.5 log
O=C(N[C@H]1COC(=O)[C@@H](NC(=O)c2cccc(O)c2O)COC(=O)[C@@H](NC(=O)c2cccc(O)c2O)COC1=O)c1cccc(O)c1O [enterobactin],effect on viability,UT189,minimal effect
same,effect on copper (II) sulfate toxicity,UT189,enhances copper (II) sulfate toxicity
same,reduction of copper (II) to copper (I),[1],84.7%
[Cl][Fe]([Cl])[Cl] [ferric chloride],superoxide dismutase activity (in words),[4],did not demonstrate any superoxide dismutase like activity
CC(C)(C1=N[C@@](C)(C(=O)O)CS1)[C@H](O)[C@@H]1CSC([C@H]2CSC(c3ccccc3O)=N2)[N-]1.[Fe] (stereo partly drawn) [ferric complexes of yersiniabactin],"SOD activity, percentage inhibition rate",[4],41.4%
same,superoxide dismutase activity (in words),[4],demonstrated SOD-like activity
bovine Cu/Zn SOD: bovine Cu/Zn superoxide dismutase used as a standard (Sigma S-7571),superoxide dismutase activity (in words),[4],completely inhibited superoxide anion formation
copper (II)-salicylate,superoxide dismutase activity in the presence of protein,[4],suppressed; also recorded: quenched
same,"SOD activity, percentage inhibition rate",[4],61.6%
hydroxphenyl-thiazolinyl-thaizolinyl [HPTT],UV-Vis spectra in the presence of metal,[5],red-shifted
trimethoprim-sulfamethoxazole [TMP/S],resistant clinical isolates,[6],29%
same,resistant clinical isolates,[6]; listed as trimethoprim/sulfamethoxazole (TMP/S),96 (29) total (%)
same,susceptibility,"[6]; fyuA+iroN siderophore genotype (CI community 3, BC 1+3)",highly susceptible
same,association with phenotypic resistance,"[6]; fyuA+iucD strategists (CI community 2, BC 1+2)",moderately with TMP/S resistance
